Reference: ChEMBL document CHEMBL5154923 (J Med Chem, 2022)

How the values were obtained:
[1] = biological target: T1, Serine/threonine-protein kinase 17A (Homo sapiens) (UniProt Q9UEE5); assay: Binding affinity to human N-terminal His-tagged/ TEV cleavage fused DRAK1 (39 to 369 residues) expressed in Escherichia coli assessed as change in melting temperature at 10 uM by SYPRO orange dye based DSF assay
T1 sequence (whole entry): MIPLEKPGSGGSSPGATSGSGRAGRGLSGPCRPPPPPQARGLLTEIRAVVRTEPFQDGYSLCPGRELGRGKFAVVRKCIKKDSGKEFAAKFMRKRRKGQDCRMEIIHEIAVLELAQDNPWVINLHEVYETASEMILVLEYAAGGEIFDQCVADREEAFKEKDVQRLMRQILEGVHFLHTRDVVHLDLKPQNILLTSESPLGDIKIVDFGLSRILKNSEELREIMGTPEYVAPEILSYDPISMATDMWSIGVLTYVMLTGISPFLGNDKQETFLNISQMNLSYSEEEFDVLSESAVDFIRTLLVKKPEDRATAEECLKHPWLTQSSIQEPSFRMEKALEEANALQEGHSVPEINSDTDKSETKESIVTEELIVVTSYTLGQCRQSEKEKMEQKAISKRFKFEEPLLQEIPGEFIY

[2] = biological target: Casein kinase II subunit alpha (Homo sapiens, UniProt P68400); assay: Binding affinity to wild type full length human CK2alpha1 (1 to 391 residues) expressed in mammalian expression system assessed as change in melting temperature at 10 uM by SYPRO orange dye based DSF assay
Chain of Casein kinase II subunit alpha (P68400 whole entry, looked up, the tested form may be a part): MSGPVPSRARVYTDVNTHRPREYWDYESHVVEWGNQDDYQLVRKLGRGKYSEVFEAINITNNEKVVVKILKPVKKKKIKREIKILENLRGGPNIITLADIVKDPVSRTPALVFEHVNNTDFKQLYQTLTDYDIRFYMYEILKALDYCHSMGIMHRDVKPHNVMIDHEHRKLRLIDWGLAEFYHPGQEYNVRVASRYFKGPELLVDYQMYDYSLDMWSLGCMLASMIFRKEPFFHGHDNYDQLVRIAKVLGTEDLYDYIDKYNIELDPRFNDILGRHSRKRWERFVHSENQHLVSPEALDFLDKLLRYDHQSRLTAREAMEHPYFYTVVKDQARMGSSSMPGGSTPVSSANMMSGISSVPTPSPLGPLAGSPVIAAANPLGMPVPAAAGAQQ

[3] = Binding affinity to wild type full length human CK2alpha2 (1 to 350 residues) expressed in mammalian expression system assessed as change in melting temperature by SYPRO orange dye based DSF assay
[4] = biological target: T2, Serine/threonine-protein kinase 17A (Homo sapiens, UniProt Q9UEE5); assay: Inhibition of human N-terminal His-tagged/ TEV cleavage fused DRAK1 (39 to 369 residues) transfected in HEK293T cells using NanoBRET NanoGlo as substrate incubated for 2 hrs by NanoBRET assay; type: cell-based
T2 sequence (Q9UEE5 whole entry): T1 sequence (whole entry)

[5] = biological target: T2, Serine/threonine-protein kinase 17A; assay: Inhibition of human N-terminal His-tagged/ TEV cleavage fused DRAK1 (39 to 369 residues) expressed in Escherichia coli using KKLNRTLSFAEPG peptide as substrate in presence of [gamma-33P]ATP by radiometric based scintillation proximity assay

SMILES | ΔTm [1] [°C] | ΔTm [2] [°C] | ΔTm [3] [°C] | IC50 [4] [nM] | IC50 [5] [nM]
O=C(O)c1ccc2cc1OCCOCCNc1ccn3ncc-2c3n1 | 7.9 | 10.6 | 11.3 |  | 
CN1CCN(C(=O)c2ccc3cc2OCCOCCNc2ccn4ncc-3c4n2)CC1 |  | 0.3 | 0.9 | > 45000 | 
O=C(NCc1ccccc1)c1ccc2cc1OCCOCCNc1ccn3ncc-2c3n1 | 9.3 | 1.7 | 4.9 | 171 | 155
